Converted amounts (≈) assume the structure as drawn. Where two headings read alike, the source gives them in different places.
Columns and labels:
[1] = target: T1, VIM-1 in whole cells of KP1015 (OmpK36 GD repeat) (Pseudomonas aeruginosa, UniProt A0A0F7KYQ8); experiment: cell-based; design: species or system K. pneumoniae
T1 construct: endogenous in cells; host or cells: K. pneumoniae KP1015

OXA-48 = OXA-48 (Klebsiella pneumoniae, UniProt Q6XEC0); experiment: Ki app of β-lactamase inhibition, purified enzyme; type: biochemical, Enterobacterales; details: 10-minute preincubation; nitrocefin substrate
Chain of OXA-48 (Q6XEC0 23-265 limits assumed): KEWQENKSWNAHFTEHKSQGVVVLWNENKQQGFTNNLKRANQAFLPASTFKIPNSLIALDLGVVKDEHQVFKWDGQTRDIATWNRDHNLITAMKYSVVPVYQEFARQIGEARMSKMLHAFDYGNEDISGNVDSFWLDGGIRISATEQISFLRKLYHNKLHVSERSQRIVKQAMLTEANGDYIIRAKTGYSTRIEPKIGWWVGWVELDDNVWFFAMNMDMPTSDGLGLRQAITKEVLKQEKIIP
Procedure: The majority of purified β-lactamase enzymes used in the study were either expressed and purified internally ([35]) or obtained from Emerald Biostructures (Bainbridge Island, WA, USA). L1 enzyme was purified as described in reference ([36]).
Enzymes were mixed with BLIs at concentrations varying from 160 to 0.0027 µM in 50-mM Na-phosphate pH7.0, 0.1-mg/mL bovide serum albumin (BSA) (buffer A; 20-µM ZnCl2 was also added for all metalloenzymes) and incubated for 10 minutes at 37°C. Nitrocefin (50 µM) (10 µM for SHV-12) or 100 µM of imipenem (prewarmed at 37°C for 10 minutes) was added, and substrate cleavage profiles were recorded at 37°C at 490 nm every 10 seconds for 10 minutes or at 294 nm every 30 seconds for 1 hour for nitrocefin and imipenem, respectively. […] Ki app values (Ki for metalloenzymes) were calculated by the method of Waley ([37]).

PAM4874 producing SHV-12 = experiment: MIC, engineered isogenic strain; type: cell-based, P. aeruginosa; details: SHV-12, class A; BLIs at fixed 4 µg/mL
PAM4910 producing VEB-2 = experiment: MIC, engineered isogenic strain; type: cell-based, P. aeruginosa; details: VEB-2, class A; BLIs at fixed 4 µg/mL
PAM4880 producing L1 = experiment: MIC, engineered isogenic strain; type: cell-based, P. aeruginosa; details: L1, class B; BLIs at fixed 4 µg/mL
PAM4875 producing OXA-23 = experiment: MIC, engineered isogenic strain; type: cell-based, P. aeruginosa; details: OXA-23, class D; BLIs at fixed 4 µg/mL
PAM4792 producing OXA-2 = experiment: MIC, engineered isogenic strain; type: cell-based, P. aeruginosa; details: OXA-2, class D; BLIs at fixed 4 µg/mL
[2] = system: PAM4823 producing CTX-M-27; experiment: MIC, engineered isogenic strain; type: cell-based, P. aeruginosa; details: CTX-M-27, class A; BLIs at fixed 4 µg/mL
[3] = system: PAM4840 producing OXY-6–2; experiment: MIC, engineered isogenic strain; type: cell-based, P. aeruginosa; details: OXY-6–2, class A; BLIs at fixed 4 µg/mL
PAM4846 producing OXA-9 = experiment: MIC, engineered isogenic strain; type: cell-based, P. aeruginosa; details: OXA-9, class D; BLIs at fixed 4 µg/mL
[4] = system: PAM4821 producing CTX-M-25; experiment: MIC, engineered isogenic strain; type: cell-based, P. aeruginosa; details: CTX-M-25, class A; BLIs at fixed 4 µg/mL
[5] = system: ESBL-producing Enterobacterales; experiment: organism not typed; type: cell-based; details: for MIC50: read-out: MIC50; for MIC90: read-out: MIC90
PAM4689 producing KPC-3 = experiment: MIC, engineered isogenic strain; type: cell-based, P. aeruginosa; details: KPC-3, class A; BLIs at fixed 4 µg/mL
[6] = system: carbapenem-resistant Enterobacterales (subset of 507 isolates); experiment: organism not typed; type: cell-based; details: xeruborbactam and vaborbactam fixed 8 mg/L, all other BLIs 4 mg/L; for MIC50: read-out: MIC50; for MIC90: read-out: MIC90
[7] = system: ESBL-producing and carbapenem-resistant Enterobacterales (All, N = 1028); experiment: organism not typed; type: cell-based; details: for MIC50: read-out: MIC50; for MIC90: read-out: MIC90
PAM4885 producing SPM-1 = experiment: MIC, engineered isogenic strain; type: cell-based, P. aeruginosa; details: SPM-1, class B; BLIs at fixed 4 µg/mL
PAM4827 producing OXA-1 = experiment: MIC, engineered isogenic strain; type: cell-based, P. aeruginosa; details: OXA-1, class D; BLIs at fixed 4 µg/mL
PAM4186 producing CMY-2 = experiment: MIC, engineered isogenic strain; type: cell-based, P. aeruginosa; details: CMY-2, class C; BLIs at fixed 4 µg/mL
PAM4887 producing IMP-1 = experiment: MIC, engineered isogenic strain; type: cell-based, P. aeruginosa; details: IMP-1, class B; BLIs at fixed 4 µg/mL
PAM4196 producing IMP-13 = experiment: MIC, engineered isogenic strain; type: cell-based, P. aeruginosa; details: IMP-13, class B; BLIs at fixed 4 µg/mL
PAM4883 producing GIM-1 = experiment: MIC, engineered isogenic strain; type: cell-based, P. aeruginosa; details: GIM-1, class B; BLIs at fixed 4 µg/mL
PAM4842 producing PER-2 = experiment: MIC, engineered isogenic strain; type: cell-based, P. aeruginosa; details: PER-2, class A; BLIs at fixed 4 µg/mL
PAM4878 producing TEM-10 = experiment: MIC, engineered isogenic strain; type: cell-based, P. aeruginosa; details: TEM-10, class A; BLIs at fixed 4 µg/mL
PAM4217 producing OXA-48 = experiment: MIC, engineered isogenic strain; type: cell-based, P. aeruginosa; details: OXA-48, class D; BLIs at fixed 4 µg/mL
PAM4798 producing VIM-2 = experiment: MIC, engineered isogenic strain; type: cell-based, P. aeruginosa; details: VIM-2, class B; BLIs at fixed 4 µg/mL
PAM4795 producing VIM-1 = experiment: MIC, engineered isogenic strain; type: cell-based, P. aeruginosa; details: VIM-1, class B; BLIs at fixed 4 µg/mL

Row | SMILES | Ki (OXA-48) | MIC (PAM4874 producing SHV-12) | MIC (PAM4910 producing VEB-2) | MIC (PAM4880 producing L1) | MIC (PAM4875 producing OXA-23) | MIC (PAM4792 producing OXA-2) | MIC [2] | MIC [3] | MIC (PAM4846 producing OXA-9) | MIC [4] | MIC50 [5] | MIC90 [5] | MIC (PAM4689 producing KPC-3) | MIC50 ([6]; CRE (N = 507)) | MIC90 ([6]; CRE (N = 507)) | MIC50 ([6]; KPC (N = 193)) | MIC90 ([6]; KPC (N = 193)) | MIC50 ([6]; MBL (N = 168)) | MIC90 ([6]; MBL (N = 168)) | MIC50 ([6]; Non-CP CRE (N = 50)) | also measured
1 | NCCN[C@H]1CC[C@H](CC(=O)N[C@H]2Cc3cccc(C(=O)O)c3OB2O)CC1 [Taniborbactam, taniborbactam] | 0.0061 ± 0.0007 µM | – | – | – | – | – | – | – | – | – | – | – | – | – | – | – | – | – | – | – | IC50 ([1]; read-out: IC50 of β-lactamase inhibition in whole cells): 39.1 ± 8.2 µM
2 | O=C(O)c1c(F)ccc2c1OB(O)[C@@H]1C[C@H]21 [Xeruborbactam, xeruborbactam] | 0.00022 ± 8e-05 µM | – | – | – | – | – | – | – | – | – | – | – | – | – | – | – | – | – | – | – | IC50 [1]: 70 ± 13.4 µM
3 | CO/N=C(\C(=O)N[C@@H]1C(=O)N2C(C(=O)[O-])=C(C[N+]3(C)CCCC3)CS[C@H]12)c1csc(N)n1 [FEP, cefepime] | – | 64 µg/mL (≈ 133 µM) | > 64 µg/mL | 4 µg/mL (≈ 8.32 µM) | 2 µg/mL (≈ 4.16 µM) | 0.5 µg/mL (≈ 1.04 µM) | > 64 µg/mL | 8 µg/mL (≈ 16.6 µM) | 2 µg/mL (≈ 4.16 µM) | > 64 µg/mL | 16 µg/mL (≈ 33.3 µM) | > 64 µg/mL | > 64 µg/mL | > 64 µg/mL | > 64 µg/mL | > 64 µg/mL | > 64 µg/mL | > 64 µg/mL | > 64 µg/mL | > 64 µg/mL | MIC90 ([6]; Non-CP CRE (N = 50)): > 64 µg/mL; MIC50 ([6]; OXA-48-like (N = 96)): > 64 µg/mL; MIC90 ([6]; OXA-48-like (N = 96)): > 64 µg/mL; MIC50 [7]: 64 µg/mL (≈ 133 µM); MIC90 [7]: > 64 µg/mL; MIC (PAM4885 producing SPM-1): > 64 µg/mL; MIC (PAM4827 producing OXA-1): 1 µg/mL (≈ 2.08 µM); MIC (PAM4186 producing CMY-2): 1 µg/mL (≈ 2.08 µM); MIC (PAM4887 producing IMP-1): 64 µg/mL (≈ 133 µM); MIC (PAM4196 producing IMP-13): 16 µg/mL (≈ 33.3 µM); MIC (PAM4883 producing GIM-1): 8 µg/mL (≈ 16.6 µM); MIC (PAM4842 producing PER-2): 64 µg/mL (≈ 133 µM); MIC (PAM4878 producing TEM-10): 16 µg/mL (≈ 33.3 µM); MIC (PAM4217 producing OXA-48): 0.5 µg/mL (≈ 1.04 µM); MIC (PAM4798 producing VIM-2): 8 µg/mL (≈ 16.6 µM); MIC (PAM4795 producing VIM-1): > 64 µg/mL
4 | C[C@@H](O)[C@H]1C(=O)N2C(C(=O)O)=C(S[C@@H]3CN[C@H](C(=O)N(C)C)C3)[C@H](C)[C@H]12 [MEM, meropenem] | – | 0.25 µg/mL (≈ 0.652 µM) | 0.25 µg/mL (≈ 0.652 µM) | 32 µg/mL (≈ 83.4 µM) | 2 µg/mL (≈ 5.22 µM) | 2 µg/mL (≈ 5.22 µM) | 0.5 µg/mL (≈ 1.3 µM) | 0.25 µg/mL (≈ 0.652 µM) | 0.25 µg/mL (≈ 0.652 µM) | 0.5 µg/mL (≈ 1.3 µM) | ≤ 0.03 µg/mL | 0.06 µg/mL (≈ 0.156 µM) | 64 µg/mL (≈ 167 µM) | 0.5 µg/mL | > 64 µg/mL | 16 µg/mL | > 64 µg/mL | 64 µg/mL | > 64 µg/mL | 4 µg/mL | MIC90 ([6]; Non-CP CRE (N = 50)): 16 µg/mL; MIC50 ([6]; OXA-48-like (N = 96)): 16 µg/mL; MIC90 ([6]; OXA-48-like (N = 96)): 64 µg/mL; MIC50 [7]: 0.5 µg/mL (≈ 1.3 µM); MIC90 [7]: > 64 µg/mL; MIC (PAM4885 producing SPM-1): 32 µg/mL (≈ 83.4 µM); MIC (PAM4827 producing OXA-1): ≤ 0.06 µg/mL; MIC (PAM4186 producing CMY-2): 0.25 µg/mL (≈ 0.652 µM); MIC (PAM4887 producing IMP-1): 4 µg/mL (≈ 10.4 µM); MIC (PAM4196 producing IMP-13): 1 µg/mL (≈ 2.61 µM); MIC (PAM4883 producing GIM-1): 32 µg/mL (≈ 83.4 µM); MIC (PAM4842 producing PER-2): 0.125 µg/mL (≈ 0.326 µM); MIC (PAM4878 producing TEM-10): 0.125 µg/mL (≈ 0.326 µM); MIC (PAM4217 producing OXA-48): 4 µg/mL (≈ 10.4 µM); MIC (PAM4798 producing VIM-2): 8 µg/mL (≈ 20.9 µM); MIC (PAM4795 producing VIM-1): 4 µg/mL (≈ 10.4 µM)
